Row | SMILES | melting point
1 | Nc1c(Cl)cc(Br)cc1Cl | 87 °C
2 | CC(C)(C)OC(=O)NN | 39 °C
3 | CCCCCCC(C)(C)S | -43.1 °C
4 | O=[N+]([O-])c1ccc(-c2nnc(S)s2)o1 | 175 to 177 °C
5 | OCC(F)(F)C(F)F | -15 °C
6 | C=CC(=O)OCC(CC)CCCC (stereo not drawn) | -90 °C
7 | COc1cscc1C(=O)O | 105 to 108 °C
8 | Nc1cc(Cl)c([N+](=O)[O-])cc1Cl | 155 °C
9 | COc1ccn(C)c(=O)c1C#N | 202 °C
10 | CCC1CCC(=O)O1 (stereo not drawn) | -18 °C
11 | OCC(O)CI (stereo not drawn) | 48.5 °C
12 | CCOC(=O)c1nnc(N)o1 | 199 to 201 °C
13 | COc1c(Cl)c(Cl)cc(Cl)c1Cl | 88.5 °C
14 | O=S(=O)(n1ccnc1)n1ccnc1 | 135 to 137 °C
15 | Nc1ncnc2c1ncn2C1OC(COP(=O)(O)OP(=O)(O)OP(=O)(O)O)C(O)C1O (stereo not drawn) | 176 °C
16 | O=C(O)C(F)(F)C(F)(F)C(F)(F)C(F)(C(F)(F)F)C(F)(F)F | 13 °C
17 | O=[N+]([O-])c1ccc(Cl)cc1[N+](=O)[O-] | 40 to 41 °C
18 | Oc1c(Cl)c(Cl)c(Cl)c(Cl)c1Cl | 191 °C
19 | CCc1ccnc(N)c1 | 67 °C

Row | SMILES | melting point
20 | CCOC(=O)C1=C(CBr)NC(C)=C(C(=O)OC)C1c1cccc([N+](=O)[O-])c1 (stereo not drawn) | 106 °C
21 | O=c1oc2ccccc2c(O)c1C1CCCc2ccccc21 (stereo not drawn) | 174 °C
22 | Cc1ccc(OP2(=S)Oc3ccc(Cl)cc3Sc3cc(Cl)ccc3O2)c(C)c1 | 149 °C
23 | O=C(NCCc1ncc(C(F)(F)F)cc1Cl)c1ccccc1C(F)(F)F | 118 °C
24 | Cc1cc(O)c(C2CC3CCC2(C)C3(C)C)cc1C (stereo not drawn) | 95 °C
25 | CON=C(C)c1cccc(Oc2nc(OC)cc(OC)n2)c1C(=O)OC | 107 °C
26 | CCOC(=O)c1c(C)n(O)c2ccc3nonc3c12 | 229 to 231 °C
27 | N#Cc1ccoc1 | 29 to 31 °C
28 | Nc1ccc(Br)cn1 | 138 °C
29 | O=NN1CCOCC1 | 29 °C
30 | CN1CCOc2cc(Br)cnc21 | 77 to 79 °C
31 | CCC(CCC(C)C1CCC2C3=CC=C4CC(O)CCC4(C)C3CCC21C)C(C)C (stereo not drawn) | 144 °C
32 | COC(=O)c1cccc(OC)c1OC | 46 to 49 °C
33 | CCCC(=O)OC1(C(=O)CCl)C(C)CC2C3CCC4=CC(=O)C=CC4(C)C3(F)C(=O)CC21C (stereo not drawn) | 95 °C
34 | CC1=C(C(=O)Nc2ccccc2)S(=O)(=O)CCO1 | 120 °C
35 | Nc1ncccc1C(=O)O | 295 to 297 °C
36 | CCOC(=O)C1C(=N)Oc2c(c(=O)oc3ccccc23)C1c1ccc(Br)cc1 (stereo not drawn) | 192 °C
37 | Cc1cnc(N)c(C)n1 | 96 °C
38 | CC(=O)Nc1ccc(C#N)cc1OC(F)(F)F | 118 to 120 °C

Row | SMILES | melting point
39 | N#Cc1cc(I)c(O)c([N+](=O)[O-])c1 | 138 °C
40 | CC(=O)Oc1cc(OC(C)=O)cc(C(=O)O)c1 | 159 °C
41 | CNC(=O)ON=C(C)C(C)SC (stereo not drawn) | 37 °C
42 | CNN | -21 °C
43 | CC(C)(C)OC(=O)N1CCN(c2ccc(C#N)cc2)CC1 | 124 to 125 °C
44 | Cc1ccsc1C | -49 °C
45 | O=C1C2CC(CN3CCCCC23)C2CCCCN12 (stereo not drawn) | 111 °C
46 | COc1cc2c(cc1C)C(Cl)C2 (stereo not drawn) | 41 °C
47 | O=[N+]([O-])OC1COC2C(O)COC12 (stereo not drawn) | 88 to 93 °C
48 | N#CCc1ccccc1C#N | 73 to 79 °C
49 | NC(=O)c1sccc1Cl | 105 to 107 °C
50 | Cc1ccc(C#N)c([N+](=O)[O-])c1 | 97 °C
51 | N[C@@H]1CCCC[C@H]1N | 40 to 45 °C
52 | O=C(O)c1ccc(Br)nc1 | 184 °C
53 | CCCCC(CC)(CO)CO | 43.8 °C
54 | CC12CC3(C)CC(C)(C1)CC(Br)(C2)C3 | 101 to 102 °C
55 | CCOc1ccccc1OS(=O)(=O)NC(=O)Nc1nc(OC)cc(OC)n1 | 150 °C
56 | COC(=O)CCC(C)C1CCC2C3C(O)C(O)C4CC(OC(C)=O)CCC4(C)C3CC(OC(C)=O)C12C (stereo not drawn) | 175 to 177 °C
57 | Cc1cc(C(=O)NCCc2ccc(S(=O)(=O)NC(=O)NN3CCCCCC3)cc2)no1 | 189 °C

Next, values leading:

Row | melting point | SMILES
58 | 177 to 179 °C | FC(F)(F)c1cc(-c2ccc3c(c2)OCO3)n[nH]1
59 | 96 to 97 °C | Ic1cccc2nsnc12
60 | 96 to 98 °C | O=C(Cl)c1csc(-c2ccc(C(F)(F)F)cc2)n1
61 | 118 °C | Oc1cccc(I)c1
62 | 285 °C | Cc1cc(=O)[nH]c2c(/N=N/c3ccc(O)cc3)c(N)nn12
63 | 35 to 37 °C | Cc1cc(N)ccc1F
64 | 135 to 137 °C | Nc1ccccc1SCCS(=O)(=O)c1ccc(Cl)cc1
65 | 90 °C | Cn1c(=S)sc2ccccc21
66 | 70 °C | CCc1nnc(-c2ccccn2)nc1CC
67 | 133 °C | CCOC(=O)C(OC(=O)c1ccccc1)c1cc(C(OC(=O)c2ccccc2)C(=O)OCC)c([N+](=O)[O-])cc1[N+](=O)[O-] (stereo not drawn)
68 | 128 °C | c1ccc2c(c1)Cc1ccccc1S2
69 | 194 °C | O=C(O)COc1cccc(OCC(=O)O)c1
70 | 141 °C | O=C1C(=O)N(c2ccccc2)c2ccccc21
71 | 176 °C | CN(C)C(=O)C(c1ccccc1)C(O)c1ccccc1 (stereo not drawn)
72 | -7 °C | O=c1cccccc1
73 | 211 °C | CCOC(=O)c1nn(-c2ccc(C)cc2)c(C)c1C(=O)C1=NOC2C(=O)N(c3ccc(F)cc3)C(=O)C12 (stereo not drawn)
74 | 76 °C | Cc1ccc2c(ccc3ccccc32)n1
75 | 157 °C | CC(=O)/N=c1\sc(C(C)=O)nn1-c1ccc(F)cc1
76 | 147 °C | O=C(c1ccc(Cl)cc1)c1noc(-c2ccc(Cl)cc2)c1S(=O)(=O)c1ccccc1
77 | 24.5 °C | CCCCN(C(C)=O)c1ccccc1
78 | 180 °C | COc1ccc(/C(C(=O)c2ccccc2)=C2/C(=O)N(C(C)=O)c3ccccc32)cc1
79 | 76 to 78 °C | O=C(C=Cc1ccc(Br)o1)c1ccco1
80 | 40 °C | NCCOc1ccccc1Cl
81 | 222 °C | O=[N+]([O-])c1ccc(NN=Cc2cccc3c(Br)cccc23)c([N+](=O)[O-])c1

Row | melting point | SMILES
82 | 25 °C | CCCCN(CCCC)C(=O)COC(=O)c1ccccc1
83 | 165 °C | O=C(c1ccccc1)c1noc(-c2ccc([N+](=O)[O-])cc2)c1S(=O)(=O)c1ccccc1
84 | 118 to 121 °C | N#CCS(=O)(=O)c1ccc(Cl)cc1Cl
85 | 205 °C | NNc1ccc(C(=O)O)cc1
86 | 205 to 207 °C | CC1(c2ccccc2)CC(C(=NNC(N)=S)c2cc3ccccc3o2)C1 (stereo not drawn)
87 | 149 to 150 °C | CCOC(=O)c1c(-c2ccccc2)csc1NC(=O)c1ccc(Cl)cc1Cl
88 | 67.5 °C | COc1ccccc1N1CCN(CCCC(=O)c2ccc(F)cc2)CC1
89 | 135 °C | c1ccc(-c2oc(-c3ccccc3)c3ccccc23)cc1
90 | 170 °C | NNc1cnn(-c2ccccc2)c(=O)c1Cl
91 | 223 to 228 °C | NC(=S)c1ccc(-c2csnn2)cc1
92 | 234 to 237 °C | CSc1nc(N)nc(-c2ccncc2)n1
93 | 88 to 89 °C | O=S(=O)(Cl)Cc1cccc(Br)c1
94 | > 270 °C | c1ccc(-c2cc3cc4cc(-c5ccccc5)[nH]c4cc3[nH]2)cc1
95 | 312 °C | Nc1nn2c(-c3ccccc3)cc(=O)[nH]c2c1/N=N/c1ccc(Cl)cc1
96 | 161 to 163 °C | O=C(O)c1cccc(N2CCOCC2)c1
97 | 29.5 °C | Cc1ccc(-c2ccccc2)cc1C
98 | 189 to 191 °C | CCOC(=O)c1c(NC(=S)Nc2ccccc2)sc2c1CCCC2
99 | 118 °C | Nc1ccc(NC(=O)C(F)(F)F)cc1
100 | 124 to 125 °C | COc1ccccc1C1OC(=O)CC1C(=O)O (stereo not drawn)
101 | 182 to 185 °C | CC(=O)N1CCc2ccc(N)cc21
102 | 133 °C | O=[N+]([O-])c1ccc(N=Nc2ccccc2)cc1
103 | 160 to 161 °C | C/C(CCc1oc2ccc([N+](=O)[O-])cc2c1-c1ccc(C)o1)=N/O
104 | 76 °C | CCCCCCN(CCCCCC)C1=NC(=Cc2ccccc2)C(=O)N1c1ccccc1
105 | 29 °C | CCOC(=O)c1cccc(N)c1

Row | melting point | SMILES
106 | 22 to 23 °C | COc1ccc(SC)cc1
107 | 131 °C | NS(=O)(=O)c1ccc(Oc2ccccc2)cc1
108 | 22.8 °C | CCCCCCCC(=O)c1ccccc1
109 | 260 °C | O=C(NNC(=O)c1ccc(Cl)cc1)c1ccc(Cl)cc1
110 | 125 °C | CN(C)c1ccc(C(/C=C2\C=Cc3ccccc3N2)c2ccccc2)cc1 (stereo not drawn)
111 | 37 to 38 °C | NCc1csc2ccc(Br)cc12
112 | 263 °C | NC(=O)/C(=C\c1ccc(Cl)cc1Cl)c1nc2ccccc2s1
113 | 14.5 °C | Cc1ccc(-c2cccc(C)c2)cc1
114 | 142 °C | O=CC=Cc1ccc([N+](=O)[O-])cc1
115 | 209 to 210 °C | CCOC(=O)/C=C/c1ccc2ccc(=O)[nH]c2c1
116 | 75 to 80 °C | N#CC(=S)Nc1ccccc1
117 | 139 to 140 °C | Ic1ccc(-c2ccno2)cc1
118 | 52.7 °C | C=CCOC(Cn1ccnc1)c1ccc(Cl)cc1Cl (stereo not drawn)
119 | 222 to 227 °C | Nc1ccc2cc(C(=O)O)ccc2c1
120 | 44 °C | COC(=O)c1ccc(Cl)cc1[N+](=O)[O-]
121 | 282 °C | O=C(O)c1cc(O)c2ccccc2n1
122 | 111 to 114 °C | COc1ccc2cc(C(C)O)ccc2c1 (racemic)
123 | 67.5 to 72.5 °C | N#Cc1cccc2ccsc12
124 | 102 to 103 °C | O=Cc1c[nH]nc1-c1cccs1
125 | 190 to 193 °C | COc1ccc(NC(=O)C=CC(=O)O)cc1
126 | 88 to 92 °C | O=Cc1ccc(OCc2ccccc2)c(OCc2ccccc2)c1
127 | 80 °C | CC(O)(c1ccccc1)c1ccccc1
128 | 92 °C | OC(c1ccc(F)cc1)(c1ccc(F)cc1)c1ccc(F)cc1
